Reference: the supplement of paper PMC4862054

What was measured:
Conditions in all cases: incubation time: 72 h
CAL-148 [1] = test: normalised viability (% of control), CellTiter-Blue; higher = more viable cells (100 = DMSO, 0 = benzethonium chloride kill control)
Experimental: (§1)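 DSRT, CellTiter-Blue viability, 72 h incubation. Signal is normalised to DMSO and benzethonium chloride controls. Value is the normalised response at dose 1.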

HCC1143 [2] = test: as above
Experimental: as §1

HDQ-P1 [3] = test: as above
Experimental: as §1

SK-BR-3 [4] = test: as above
Experimental: as §1

CAL-120 [5] = test: as above
Experimental: as §1

Hs578T [6] = test: as above
Experimental: as §1

HCC1937 [7] = test: as above
Experimental: as §1

CAL-85-1 [8] = test: as above
Experimental: as §1

CAL-51 [9] = test: as above
Experimental: as §1

MDA-MB-468 [10] = test: as above
Experimental: as §1

HCC1599 [11] = test: as above
Experimental: as §1

MDA-MB-453 [12] = test: as above
Experimental: as §1

BT-474 [13] = test: as above
Experimental: as §1

MDA-MB-231 [14] = test: as above
Experimental: as §1

MDA-MB-436 [15] = test: as above
Experimental: as §1

DU-4475 [16] = test: as above
Experimental: as §1

MFM-223 [17] = test: as above
Experimental: as §1

BT-549 [18] = test: as above
Experimental: as §1

CAL-148 [19] = test: normalised response (% of control), CellTiter-Glo; higher = more viable cells (100 = DMSO, 0 = benzethonium chloride kill control)
How it was run: (§2)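 A 20 µl suspension of breast cancer cells was seeded into each well of 384-well plates containing compound at 5 concentrations in 10-fold steps over a compound-specific 10,000-fold range. After 72 h incubation, CellTox Green fluorescence (485/520 nm) was read first, and CellTiter-Glo luminescence was read after 10 min at room temperature. Each plate was normalised against 0.1 % DMSO (100) and a positive kill control (0), and each value is the normalised signal at one concentration.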

HCC1143 [20] = test: as above
How it was run: as §2

HDQ-P1 [21] = test: as above
How it was run: as §2

SK-BR-3 [22] = test: as above
How it was run: as §2

CAL-120 [23] = test: as above
How it was run: as §2

Hs578T [24] = test: as above
How it was run: as §2

HCC1937 [25] = test: as above
How it was run: as §2

CAL-85-1 [26] = test: as above
How it was run: as §2

CAL-51 [27] = test: as above
How it was run: as §2

MDA-MB-468 [28] = test: as above
How it was run: as §2

HCC1599 [29] = test: as above
How it was run: as §2

MDA-MB-453 [30] = test: as above
How it was run: as §2

BT-474 [31] = test: as above
How it was run: as §2

MCF-10A = test: as above
How it was run: as §2

MDA-MB-231 [32] = test: as above
How it was run: as §2

MDA-MB-436 [33] = test: as above
How it was run: as §2

DU-4475 [34] = test: as above
How it was run: as §2

MFM-223 [35] = test: as above
How it was run: as §2

BT-549 [36] = test: as above
How it was run: as §2

Structure (SMILES) | normalised viability (CAL-148 [1]) | normalised viability (HCC1143 [2]) | normalised viability (HDQ-P1 [3]) | normalised viability (SK-BR-3 [4]) | normalised viability (CAL-120 [5]) | normalised viability (Hs578T [6]) | normalised viability (HCC1937 [7]) | normalised viability (CAL-85-1 [8]) | normalised viability (CAL-51 [9]) | normalised viability (MDA-MB-468 [10]) | normalised viability (HCC1599 [11]) | normalised viability (MDA-MB-453 [12]) | normalised viability (BT-474 [13]) | normalised viability (MDA-MB-231 [14]) | normalised viability (MDA-MB-436 [15]) | normalised viability (DU-4475 [16]) | normalised viability (MFM-223 [17]) | normalised viability (BT-549 [18]) | normalised response (CAL-148 [19]) | normalised response (HCC1143 [20]) | normalised response (HDQ-P1 [21]) | normalised response (SK-BR-3 [22]) | normalised response (CAL-120 [23]) | normalised response (Hs578T [24]) | normalised response (HCC1937 [25]) | normalised response (CAL-85-1 [26]) | normalised response (CAL-51 [27]) | normalised response (MDA-MB-468 [28]) | normalised response (HCC1599 [29]) | normalised response (MDA-MB-453 [30]) | normalised response (BT-474 [31]) | normalised response (MCF-10A) | normalised response (MDA-MB-231 [32]) | normalised response (MDA-MB-436 [33]) | normalised response (DU-4475 [34]) | normalised response (MFM-223 [35]) | normalised response (BT-549 [36])
N#CC[C@H](C1CCCC1)n1cc(-c2ncnc3[nH]ccc23)cn1 [Ruxolitinib] (1 nM) | 94.5% | 101% | 85.7% | 101% | 106% | 102% | 102% | 114% | 89.4% | 96.6% | 101% | 101% | 98.2% | 82.5% | 96.9% | 104% | 98.8% | 89.9% | 92.8% | 93.1% | 93.5% | 83.5% | 93.8% | 95.8% | 92.8% | 101% | 120% | 101% | 93.5% | 94.4% | 96.8% | 82% | 102% | 86.7% | 91.9% | 90.1% | 102%
COc1cccc2c1C(=O)c1c(O)c3c(c(O)c1C2=O)C[C@@](O)(C(=O)CO)C[C@@H]3O[C@H]1C[C@H](N)[C@H](O)[C@H](C)O1 [Doxorubicin] (0.1 nM) | 97.8% | 91.2% | 98.5% | 90.3% | 86.9% | 110% | 86.4% | 84.6% | 102% | 104% | 82.8% | 102% | 79.6% | 96.8% | 112% | 102% | 95.6% | 95% | 103% | 102% | 102% | 107% | 100% | 101% | 101% | 105% | 99.3% | 103% | 119% | 120% | 107% | 98.8% | 105% | 101% | 104% | 104% | 105%
CC[C@]1(O)C[C@@H]2CN(CCc3c([nH]c4ccccc34)[C@@](C(=O)OC)(c3cc4c(cc3OC)N(C)[C@H]3[C@@](O)(C(=O)OC)[C@H](OC(C)=O)[C@]5(CC)C=CCN6CC[C@]43[C@@H]65)C2)C1 [Vinblastine] (0.1 nM) | 92.5% | 78.6% | 102% | 85.8% | 82.1% | 103% | 97.1% | 85.8% | 114% | 98.8% | 90.7% | 98.5% | 87.9% | 83.1% | 103% | 104% | 90% | 96.6% | 96.6% | 99% | 99.4% | 100% | 95.9% | 99.5% | 93.9% | 97.4% | 103% | 98.8% | 106% | 103% | 96.2% | 101% | 94.9% | 95.8% | 101% | 93.1% | 102%
C=CCNC1=C2C[C@@H](C)C[C@H](OC)[C@H](O)[C@@H](C)/C=C(\C)[C@H](OC(N)=O)[C@@H](OC)/C=C\C=C(/C)C(=O)NC(=CC1=O)C2=O [Tanespimycin] (1 nM) | 115% | 87.4% | 105% | 93% | 77.1% | 101% | 86.4% | 92.6% | 115% | 103% | 94.7% | 108% | 97.3% | 98.2% | 110% | 118% | 90.8% | 113% | 92.6% | 95.8% | 99.4% | 96.8% | 92.5% | 104% | 94.7% | 107% | 104% | 107% | 102% | 104% | 91.9% | 99.1% | 98.9% | 86.8% | 99% | 94% | 105%
